This passage reports IC50 results from US8471005B2 (Cephalon, Inc., priority 2008, dated 2013).

SMILES strings stand for the structures.

For one experiment, the target named is T1, JAK2 (Homo sapiens, UniProt O60674).
T1 construct: host or cells: baculovirus expression system
The experiment can be described thus: Recombinant Human JAK2 Kinase Assay (TRF). Type of experiment: biochemical. The following applies: JAK2 Kinase Inhibition; read-out: JAK2 Potency. Put shortly:
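TRF read-out: Eu-N1 PY100 anti-phosphotyrosine antibody detects product. Enzyme is baculovirus-expressed JAK2 at 15 ng/ml; substrate is a biotinyl 15-mer peptide bound to Neutravidin-coated wells. Buffer 20 mM HEPES pH 7.2, 0.2 μM ATP, 1 mM MnCl2, 0.1% BSA, 2.5% DMSO final; 20 min, RT.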

The next experiment concerns the target T2, ALK (Homo sapiens, UniProt Q9UM73).
T2 construct: host or cells: baculovirus expression system
The experiment can be described thus: ALK Kinase Assay (ELISA/TRF, PLC-γ substrate). The following applies: ALK Kinase Inhibition; read-out: ALK Potency. Type of experiment: biochemical. Put shortly:
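PLC-γ substrate coated at 10 μg/mL in TBS; reaction started with 30 ng/ml ALK, run 15 min at 37° C. Phosphoproduct detected by TRF with Eu-N1-labeled PT66 anti-phosphotyrosine antibody. IC50 from sigmoidal variable-slope fit of percent inhibition versus log concentration.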
(In general: ELISA stands for enzyme-linked immunosorbent assay.)

T1 sequence (O60674 whole entry): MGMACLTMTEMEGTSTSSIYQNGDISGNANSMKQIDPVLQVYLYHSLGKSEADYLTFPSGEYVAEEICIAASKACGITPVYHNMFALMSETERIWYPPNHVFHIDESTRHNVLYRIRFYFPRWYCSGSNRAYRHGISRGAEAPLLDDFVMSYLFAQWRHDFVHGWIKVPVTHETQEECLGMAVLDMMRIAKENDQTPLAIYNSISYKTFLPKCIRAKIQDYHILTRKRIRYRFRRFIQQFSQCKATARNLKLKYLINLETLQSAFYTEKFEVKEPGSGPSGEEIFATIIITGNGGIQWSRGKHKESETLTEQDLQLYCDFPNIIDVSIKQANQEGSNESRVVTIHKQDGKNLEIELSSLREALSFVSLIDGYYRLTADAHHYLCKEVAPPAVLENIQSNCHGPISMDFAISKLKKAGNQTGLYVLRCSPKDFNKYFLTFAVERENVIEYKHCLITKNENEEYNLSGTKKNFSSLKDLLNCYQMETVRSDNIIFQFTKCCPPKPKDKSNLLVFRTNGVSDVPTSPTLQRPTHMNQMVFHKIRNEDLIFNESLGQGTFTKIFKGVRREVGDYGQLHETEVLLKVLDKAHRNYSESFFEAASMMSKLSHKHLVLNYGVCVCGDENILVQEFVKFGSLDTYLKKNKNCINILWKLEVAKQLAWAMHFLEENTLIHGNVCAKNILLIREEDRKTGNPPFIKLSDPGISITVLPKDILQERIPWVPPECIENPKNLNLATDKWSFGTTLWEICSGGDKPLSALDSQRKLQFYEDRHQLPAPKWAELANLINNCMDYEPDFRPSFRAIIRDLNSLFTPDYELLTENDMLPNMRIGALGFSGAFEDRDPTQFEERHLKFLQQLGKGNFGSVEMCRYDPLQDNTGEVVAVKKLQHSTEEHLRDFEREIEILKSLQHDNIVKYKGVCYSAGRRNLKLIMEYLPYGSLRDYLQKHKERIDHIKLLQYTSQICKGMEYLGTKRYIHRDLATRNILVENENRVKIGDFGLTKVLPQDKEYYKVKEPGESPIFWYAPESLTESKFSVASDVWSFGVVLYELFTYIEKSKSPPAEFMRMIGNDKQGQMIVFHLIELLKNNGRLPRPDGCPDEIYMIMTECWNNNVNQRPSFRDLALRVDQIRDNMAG
T2 sequence (Q9UM73 19-1620): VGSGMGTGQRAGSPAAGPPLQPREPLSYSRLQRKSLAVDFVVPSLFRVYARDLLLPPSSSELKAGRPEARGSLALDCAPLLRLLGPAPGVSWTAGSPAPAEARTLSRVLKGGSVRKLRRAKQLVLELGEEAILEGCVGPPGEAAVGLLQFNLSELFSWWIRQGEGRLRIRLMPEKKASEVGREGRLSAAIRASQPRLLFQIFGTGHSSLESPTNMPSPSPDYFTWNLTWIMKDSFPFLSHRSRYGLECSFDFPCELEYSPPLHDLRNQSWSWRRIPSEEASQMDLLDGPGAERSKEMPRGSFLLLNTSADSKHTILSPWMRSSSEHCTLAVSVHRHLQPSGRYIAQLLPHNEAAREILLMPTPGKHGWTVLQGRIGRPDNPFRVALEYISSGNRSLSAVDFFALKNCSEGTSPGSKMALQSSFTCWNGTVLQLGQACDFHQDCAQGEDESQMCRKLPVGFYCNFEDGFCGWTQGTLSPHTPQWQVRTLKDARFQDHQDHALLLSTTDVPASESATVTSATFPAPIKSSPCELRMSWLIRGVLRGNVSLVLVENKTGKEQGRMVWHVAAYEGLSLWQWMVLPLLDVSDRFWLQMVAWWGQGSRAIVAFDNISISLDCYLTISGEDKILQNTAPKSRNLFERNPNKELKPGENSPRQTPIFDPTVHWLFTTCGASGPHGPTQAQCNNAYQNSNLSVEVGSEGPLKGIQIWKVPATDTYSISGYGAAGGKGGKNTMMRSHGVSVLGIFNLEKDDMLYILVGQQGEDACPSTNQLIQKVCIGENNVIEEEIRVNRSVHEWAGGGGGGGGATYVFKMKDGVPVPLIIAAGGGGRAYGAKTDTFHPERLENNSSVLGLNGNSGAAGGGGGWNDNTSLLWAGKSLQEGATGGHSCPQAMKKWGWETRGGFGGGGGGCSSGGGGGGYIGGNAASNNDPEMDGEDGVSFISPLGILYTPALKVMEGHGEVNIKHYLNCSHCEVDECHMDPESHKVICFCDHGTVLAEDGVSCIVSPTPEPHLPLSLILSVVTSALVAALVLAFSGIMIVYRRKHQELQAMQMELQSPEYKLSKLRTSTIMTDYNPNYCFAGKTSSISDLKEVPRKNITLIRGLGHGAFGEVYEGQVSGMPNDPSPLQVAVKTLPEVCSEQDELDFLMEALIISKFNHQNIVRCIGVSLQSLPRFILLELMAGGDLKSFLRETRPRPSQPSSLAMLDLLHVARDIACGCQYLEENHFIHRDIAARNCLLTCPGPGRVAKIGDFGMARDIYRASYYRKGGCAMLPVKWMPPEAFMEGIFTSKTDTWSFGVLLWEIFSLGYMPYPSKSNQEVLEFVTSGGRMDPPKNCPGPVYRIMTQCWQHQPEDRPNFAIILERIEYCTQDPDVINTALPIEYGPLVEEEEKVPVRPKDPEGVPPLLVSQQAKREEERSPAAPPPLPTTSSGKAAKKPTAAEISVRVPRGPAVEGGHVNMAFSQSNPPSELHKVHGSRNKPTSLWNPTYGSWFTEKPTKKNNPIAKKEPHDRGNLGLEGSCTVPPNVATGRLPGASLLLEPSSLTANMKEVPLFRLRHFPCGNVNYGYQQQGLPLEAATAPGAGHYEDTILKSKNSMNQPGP

In the case of `CC(=O)N1CCCC(C)(C)c2ccc(Nc3ncc4ccc(-c5ccccc5N(C)S(C)(=O)=O)n4n3)cc21` [Example 1366, N-{2-[2-(1-Acetyl-5,5-dimethyl-2,3,4,5-tetrahydro-1H-benzo[b]azepin-8-ylamino)-pyrrolo[2,1-f][1,2,4]triazin-7-yl]-phenyl}-N-methyl-methanesulfonamide], the IC50 at JAK2 was less than 0.1 µM; on ALK, 0.1 to 1 µM.
On to `CC(=O)N1CCc2ccc(Nc3ncc4ccc(-c5cccc(NS(C)(=O)=O)c5)n4n3)cc21` [Example 1367, N-{3-[2-(1-Acetyl-2,3-dihydro-1H-indol-6-ylamino)-pyrrolo[2,1-f][1,2,4]triazin-7-yl]-phenyl}-methanesulfonamide], for which the IC50 at JAK2 is less than 0.1 µM; at ALK, 1 to 10 µM.
The corresponding values for `CC(=O)Nc1cccc(Nc2ncc3ccc(-c4cccc(S(=O)(=O)NC(C)(C)C)c4)n3n2)c1` [Example 1368, N-{3-[7-(3-tert-Butylsulfamoyl-phenyl)-pyrrolo[2,1-f][1,2,4]triazin-2-ylamino]-phenyl}-acetamide] are less than 0.1 µM and 0.1 to 1 µM.
As for `CC(=O)N1CCCC(C)(C)c2ccc(Nc3ncc4ccc(-c5cccc(S(=O)(=O)NC(C)(C)C)c5)n4n3)cc21` [Example 1369, 3-[2-(1-Acetyl-5,5-dimethyl-2,3,4,5-tetrahydro-1H-benzo[b]azepin-8-ylamino)-pyrrolo[2,1-f][1,2,4]triazin-7-yl]-N-tert-butyl-benzenesulfonamide], the results for the IC50 at JAK2 and on ALK were less than 0.1 µM and 1 to 10 µM, respectively.
The corresponding values for `COc1ccc(Nc2ncc3ccc(-c4ccccc4N(C)S(C)(=O)=O)n3n2)cc1N1CCCC1=O` [Example 1370, N-(2-{2-[4-Methoxy-3-(2-oxo-pyrrolidin-1-yl)-phenylamino]-pyrrolo[2,1-f][1,2,4]triazin-7-yl}-phenyl)-N-methyl-methanesulfonamide] are less than 0.1 µM and 0.1 to 1 µM.
As for `CN(c1ccccc1-c1ccc2cnc(Nc3ccc4c(c3)NC(=O)C(C)(C)O4)nn12)S(C)(=O)=O` [Example 1371, N-{2-[2-(2,2-Dimethyl-3-oxo-3,4-dihydro-2H-1,4-benzoxazin-6-ylamino)-pyrrolo[2,1-f][1,2,4]triazin-7-yl]-phenyl}-N-methyl-methanesulfonamide], the IC50 was less than 0.1 µM at JAK2 and 0.1 to 1 µM on ALK.
The corresponding values for `CC(=O)N1CCc2ccc(Nc3ncc4ccc(-c5cccc(S(=O)(=O)NC(C)(C)C)c5)n4n3)cc21` [Example 1372, 3-[2-(1-Acetyl-2,3-dihydro-1H-indol-6-ylamino)-pyrrolo[2,1-f][1,2,4]triazin-7-yl]-N-tert-butyl-benzenesulfonamide] are less than 0.1 µM and greater than 10 µM.
For the compound `CC(=O)N1CCOc2ccc(Nc3ncc4ccc(-c5cccc(S(=O)(=O)NC(C)(C)C)c5)n4n3)cc21` [Example 1373, 3-[2-(4-Acetyl-3,4-dihydro-2H-benzo[1,4]oxazin-6-ylamino)-pyrrolo[2,1-f][1,2,4]triazin-7-yl]-N-tert-butyl-benzenesulfonamide], the IC50 on JAK2 and on ALK was less than 0.1 µM throughout.
Turning to `CC(=O)N1CCOc2ccc(Nc3ncc4ccc(-c5ccccc5N(C)S(C)(=O)=O)n4n3)cc21` [Example 1374, N-{2-[2-(4-Acetyl-3,4-dihydro-2H-1,4-benzoxazin-6-ylamino)-pyrrolo[2,1-f][1,2,4]triazin-7-yl]-phenyl}-N-methyl-methanesulfonamide], the figures for the IC50 at JAK2 and on ALK were less than 0.1 µM and 0.1 to 1 µM, respectively.
The corresponding values for `CC(=O)Nc1cccc(Nc2ncc3ccc(-c4ccccc4N(C)S(C)(=O)=O)n3n2)c1` [Example 1375, N-(3-{7-[2-(Methanesulfonyl-methyl-amino)-phenyl]-pyrrolo[2,1-f][1,2,4]triazin-2-ylamino}-phenyl)-acetamide] are less than 0.1 µM and 0.1 to 1 µM.
In the case of `CC(C)(C)NS(=O)(=O)c1cccc(-c2ccc3cnc(Nc4ccc5c(c4)NC(=O)C(C)(C)O5)nn23)c1` [Example 1376, N-tert-Butyl-3-[2-(2,2-dimethyl-3-oxo-3,4-dihydro-2H-1,4-benzoxazin-6-ylamino)-pyrrolo[2,1-f][1,2,4]triazin-7-yl]-benzenesulfonamide], the IC50 on JAK2 is less than 0.1 µM; on ALK, 1 to 10 µM.
Consider `COc1ccc(Nc2ncc3ccc(-c4cccc(S(=O)(=O)NC(C)(C)C)c4)n3n2)cc1N1CCCC1=O` [Example 1377, N-tert-Butyl-3-{2-[4-methoxy-3-(2-oxo-pyrrolidin-1-yl)-phenylamino]-pyrrolo[2,1-f][1,2,4]triazin-7-yl}-benzenesulfonamide], for which the IC50 is less than 0.1 µM at JAK2 and 0.1 to 1 µM on ALK.
The corresponding values for `CC(=O)Nc1cccc(Nc2ncc3ccc(-c4cnn(C)c4)n3n2)c1` [Example 1378, N-{3-[7-(1-Methyl-1H-pyrazol-4-yl)-pyrrolo[2,1-f][1,2,4]triazin-2-ylamino]-phenyl}-acetamide] are less than 0.1 µM and 1 to 10 µM.
Consider `CCN1C(=O)CCC(C)(C)c2ccc(Nc3ncc4ccc(-c5cnn(C)c5)n4n3)cc21` [Example 1379, 1-Ethyl-5,5-dimethyl-8-[7-(1-methyl-1H-pyrazol-4-yl)-pyrrolo[2,1-f][1,2,4]triazin-2-ylamino]-1,3,4,5-tetrahydro-benzo[b]azepin-2-one], for which the IC50 is less than 0.1 µM on JAK2 and 0.1 to 1 µM on ALK.
With `CC(=O)Nc1cc(Nc2ncc3ccc(-c4cnn(C)c4)n3n2)ccc1C(C)(C)C` [Example 1380, N-{2-tert-Butyl-5-[7-(1-methyl-1H-pyrazol-4-yl)-pyrrolo[2,1-f][1,2,4]triazin-2-ylamino]-phenyl}-acetamide], the values for the IC50 on JAK2 and at ALK were less than 0.1 µM and 1 to 10 µM, respectively.
Consider `CC(=O)N1CCCC(C)(C)c2ccc(Nc3ncc4ccc(-c5cnn(C)c5)n4n3)cc21` [Example 1381, 1-{5,5-Dimethyl-8-[7-(1-methyl-1H-pyrazol-4-yl)-pyrrolo[2,1-f][1,2,4]triazin-2-ylamino]-2,3,4,5-tetrahydro-benzo[b]azepin-1-yl}-ethanone], for which the results for the IC50 on JAK2 and on ALK were less than 0.1 µM and 1 to 10 µM, respectively.
With `CC(=O)Nc1cccc(Nc2ncc3ccc(-c4ccccc4NS(C)(=O)=O)n3n2)c1` [Example 1382, N-{3-[7-(2-Methanesulfonylamino-phenyl)-pyrrolo[2,1-f][1,2,4]triazin-2-ylamino]-phenyl}-acetamide], the IC50 is less than 0.1 µM at JAK2 and 1 to 10 µM at ALK.
Take `CC(C)(C)NS(=O)(=O)c1cccc(-c2ccc3cnc(Nc4cccc(N5CCCC5=O)c4)nn23)c1` [Example 1383, N-tert-Butyl-3-{2-[3-(2-oxo-pyrrolidin-1-yl)-phenylamino]-pyrrolo[2,1-f][1,2,4]triazin-7-yl}-benzenesulfonamide]: the values for the IC50 at JAK2 and on ALK were less than 0.1 µM and 1 to 10 µM, respectively.
As for `CNC(=O)c1cccc(Nc2ncc3ccc(-c4cccc(S(=O)(=O)NC(C)(C)C)c4)n3n2)c1` [Example 1384, 3-[7-(3-tert-Butylsulfamoyl-phenyl)-pyrrolo[2,1-f][1,2,4]triazin-2-ylamino]-N-methyl-benzamide], the IC50 on JAK2 was less than 0.1 µM; at ALK it was 1 to 10 µM.
For the compound `CC(C)C(=O)Nc1cccc(Nc2ncc3ccc(-c4cccc(S(=O)(=O)NC(C)(C)C)c4)n3n2)c1` [Example 1385, N-{3-[7-(3-tert-Butylsulfamoyl-phenyl)-pyrrolo[2,1-f][1,2,4]triazin-2-ylamino]-phenyl}-isobutyramide], the IC50 was less than 0.1 µM on JAK2 and 1 to 10 µM on ALK.
